Data published in patent US20230271956A1, “AMIDE DERIVATIVES” (Merck Patent GmbH, priority 2020, published 2023).

Legend:
human rec ACSS2 = biological target: T1, human rec ACSS2 (Homo sapiens, UniProt Q9NR19); assay: Biochemical activity ACSS2 assay (AMP-Glo); settings: human recombinant ACSS2, AMP-Glo, 180 min at 37° C.
T1 construct: myc (C); purchased Origene
Protocol: The biochemical activity assay for ACSS2 is based on the detection of released AMP by AMP-Glo ™ Assay kit (Promega, Madison). The assay is run in three steps: the enzymatic reaction in which human rec ACSS2 activates acetate with ATP and Coenzyme A as cosubstrates to acetyI-coA thereby releasing AMP and the detection reaction of AMP by AMP Glo assay in which after the destruction of the residual ATP with AMP Glo reagent 1 produced AMP is converted to ATP that is measured in a luciferase assay system (detection reagent). The ACSS2 activity correlates with the detected luminescence signal.
The assay was performed in Perkin Elmer 384well white Proxiplates in a total volume of 8 µl.
1 nM (fc) C-term myc tagged ACSS2 (human, recombinant, Origene, Rockville, US) and a mixture of 100 µM (fc) ATP, 100 µM (fc) Coenzyme A and 500 µM (fc) sodium acetate were incubated in a total volume of 5 µl (50 mM Hepes, 1 mM Mg-chloride, 150 mM NaCl, 1 mM DTT, 0.01 % (w/v) BSA, 0.3 % DMSO, pH 7.5) in the absence or presence of the test compound (10 dilution concentrations, start conc 30 µM) for 180 min at 37° C. The reaction was stopped and residual ATP destroyed by the addition of 1 µl AMP Glo reagent solution (Promega, Madison, US). After 1 h incubation at room temperature 2 µl of AMP Glo detection reagent was added and the assay was incubated for 0.75 hr at room temperature. The luminescence signal was measured with an Envision multimode reader (Perkin Elmer LAS Germany GmbH) at 700 nm in luminescence mode. The full value used was the inhibitor-free reaction. The pharmacological zero value was generated by addition of ACSS2 inhibitor (Ac-CoA Synthase Inhibitor - CAS 508186-14-9 -Calbiochem) in a final concentration of 5 µM. The inhibitory values (IC50) were determined using the program Assay Analyzer® from GeneData.

ACSS2 = biological target: T2, ACSS2 (Homo sapiens, UniProt Q9NR19); assay: Cellular assay of 14C acetate incorporation into histones (IC50 ACSS2 cellular histone); format: cell-based; settings: HCT-15 cells
T2 construct: endogenous fatty acid synthesis activity in the human HCT-15 cancer cell line; endogenous in cells; host or cells: HCT-15
T2 sequence (Q9NR19 whole entry): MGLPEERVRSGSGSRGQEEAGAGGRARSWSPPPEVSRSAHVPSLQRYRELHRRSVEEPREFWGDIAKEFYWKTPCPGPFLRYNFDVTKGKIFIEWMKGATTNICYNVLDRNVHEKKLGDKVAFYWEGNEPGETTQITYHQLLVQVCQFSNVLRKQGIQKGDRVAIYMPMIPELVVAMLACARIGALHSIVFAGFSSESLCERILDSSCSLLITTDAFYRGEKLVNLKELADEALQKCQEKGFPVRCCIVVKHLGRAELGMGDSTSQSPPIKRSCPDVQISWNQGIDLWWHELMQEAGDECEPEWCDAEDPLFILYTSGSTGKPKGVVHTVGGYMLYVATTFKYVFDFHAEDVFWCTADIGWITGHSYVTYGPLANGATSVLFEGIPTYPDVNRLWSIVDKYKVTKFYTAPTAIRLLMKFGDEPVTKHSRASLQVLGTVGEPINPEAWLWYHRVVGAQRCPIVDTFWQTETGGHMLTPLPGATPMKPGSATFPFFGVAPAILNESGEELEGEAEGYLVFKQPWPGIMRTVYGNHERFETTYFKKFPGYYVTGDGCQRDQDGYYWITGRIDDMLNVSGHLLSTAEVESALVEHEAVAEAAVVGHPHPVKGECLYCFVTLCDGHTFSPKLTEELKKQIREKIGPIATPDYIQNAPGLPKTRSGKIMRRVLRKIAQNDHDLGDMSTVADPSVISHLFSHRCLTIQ
Protocol: This protocol describes a cellular assay capable to quantify endogenous histone acetylation activity in the human HCT-15 cancer cell line following the incorporation of extracellularly administered radiolabeled ^14C acetate with a scintillation based read out on acid extracted histones.
HCT-15 cells are trypsinized, washed and suspended in DMEM culture medium supplemented with penicillin/streptomycin (100 U/mL), sodium pyruvate (1 mM), and 10% FBS
Compounds serial dilutions are prepared in 96-well V-bottom microplate from 10 mM stock solutions in DMSO. From these dilutions 0.5 µl are transferred to a fresh plate including pure DMSO as negative control. The dilutions are prepared such, that the final concentration in the assay is 1/400 of the concentration in the serial dilution. The final DMSO concentration in the assay is 0.25 %.
The cell suspension is seeded at densities of 2x10^5 cells per 170 µl into individual wells of a 96 well plate each containing 0.5 µl aliquots of compound serial dilutions and are kept for 1h in a cell incubator. To each well 30 µL of a mixture containing 0.5 mCi/mL of ^14C-acetate with full medium are added. Then, the wells are incubated for 3 hrs in the cell incubator.
Further steps of the procedure should be conducted on ice or instrumentations precooled to 4° C. Cells are sedimented in the 96-well V-bottom microplate by centrifugation (Eppendorf 5804 R) at 1200 rpm for 5 min. The supernatant is removed and the cells are washed twice with 200µL of PBS-NaB (5 mM sodium butyrate) buffer by iterative resuspension and centrifugation. Finally, the cells are resuspended in 50 µL of TEB (PBS-NaB + 0.5 % Triton X-100) and left on ice for 10 minutes. After centrifugation at 2300 rpm for 10 minutes at 4° C. the supernatant is removed, the remaining pellet is suspended in 50 µL of 0.2 M HCl and incubated over night at 4° C. After incubation the well plate is shaken for 2 minutes in a MTP plate shaker set to 1200 rpm and then centrifuged at 3700 rpm for 10 mins. The lysate is carefully aspirated (~43 µL) and transferred into a white MTP plate (Greiner bio-one 65509). 90 µL of Ultima Gold XR scintillation cocktail are added and the plates are sealed with a transparent cover tape before mixing vigorously using plate shaker set to 1200 rpm. Radioactivity from ^14C incorporation in the wells is measured as CPM count in a MicroBeta Trilux luminescence counter.

T1 sequence (Q9NR19 whole entry): as above

Row | Structure (SMILES) | IC50 (human rec ACSS2) | IC50 (ACSS2)
1 | CCc1c(C(O)(c2ccccc2)c2nccs2)nc2cc(OC)c(C(=O)Nc3ncn(CC)n3)cn12 (racemic) [Compound 32, 3-ethyl-N-(1-ethyl-1H-1,2,4-triazol-3-yl)-2-[hydroxy(phenyl)(1,3-thiazol-2-yl)methyl]-7-methoxyimidazo[1,2-a]pyridine-6-carboxamide] | 10 to 100 nM | 
2 | CCc1cc2nc(C(O)(c3ccccc3)c3ccccc3)c(CC)n2cc1C(=O)Nc1ncn(CC)n1 (racemic) [Compound 33, 3,7-diethyl-N-(1-ethyl-1H-1,2,4-triazol-3-yl)-2-(hydroxydiphenylmethyl)imidazo[1,2-a]pyridine-6-carboxamide] | 10 to 100 nM | 
3 | CCn1cnc(NC(=O)c2cc3c(nc2OC)nc(C(O)(c2ccccc2)c2ccn(C)n2)n3CC)n1 (racemic) [Compound 40, 1-ethyl-N-(1-ethyl-1H-1,2,4-triazol-3-yl)-2-[hydroxy(1-methyl-1H-pyrazol-3-yl)phenylmethyl]-5-methoxy-1 H-imidazo[4,5-b]pyridine-6-carboxamide] | 10 to 100 nM | 
4 | CCn1cnc(NC(=O)c2cc3c(nc2OC)nc(C(O)(c2ccccc2)c2ccncn2)n3CC)n1 (racemic) [Compound 42, 1-ethyl-N-(1-ethyl-1H-1,2,4-triazol-3-yl)-2-[hydroxy(phenyl)(pyrimidin-4-yl)methyl]-5-methoxy-1H-imidazo[4,5-b]pyridine-6-carboxamide] | 10 to 100 nM | 1 to 10 nM
5 | CCn1cnc(NC(=O)c2cc3c(nc2OC)nc(C(O)(c2ccccn2)c2cccs2)n3CC)n1 (racemic) [Compound 43, 1-ethyl-N-(1-ethyl-1H-1,2,4-triazol-3-yl)-2-[hydroxy(pyridin-2-yl)(thiophen-2-yl)methyl]-5-methoxy-1H-imidazo[4,5-b]pyridine-6-carboxamide] | 10 to 100 nM | 10 to 100 nM
6 | CCn1cnc(NC(=O)c2cc3c(nc2OC)nc(C(O)(c2ccccc2)c2cnn(C)c2)n3CC)n1 (racemic) [Compound 48, 1-ethyl-N-(1-ethyl-1H-1,2,4-triazol-3-yl)-2-[hydroxy(1-methyl-1H-pyrazol-4-yl)phenylmethyl]-5-methoxy-1H-imidazo[4,5-b]pyridine-6-carboxamide] | 100 to 10000 nM | 100 to 10000 nM
7 | CCn1cnc(NC(=O)c2cc3c(nc2OC)nc(C(O)(c2ccccc2)c2ncccn2)n3CC)n1 (racemic) [Compound 49, 1-ethyl-N-(1-ethyl-1H-1,2,4-triazol-3-yl)-2-[hydroxy(phenyl)(pyrimidin-2-yl)methyl]-5-methoxy-1H-imidazo[4,5-b]pyridine-6-carboxamide] | 10 to 100 nM | 1 to 10 nM
8 | CCn1cnc(NC(=O)c2cc3c(nc2OC)nc(C(O)(c2ccccc2)c2ccccc2OC)n3CC)n1 (racemic) [Compound 57, 1-ethyl-N-(1-ethyl-1H-1,2,4-triazol-3-yl)-2-[hydroxy(2-methoxyphenyl)phenylmethyl]-5-methoxy-1H-imidazo[4,5-b]pyridine-6-carboxamide] | 100 to 10000 nM | 10 to 100 nM
9 | CCc1c(C(O)(c2ccccc2)c2ccc(C)s2)nc2cc(OC)c(C(=O)Nc3ncn(CC)n3)cn12 (single isomer, unassigned) [Compound 26, 3-Ethyl-2-[hydroxy-(5-methyl-thiophen-2-yl)-phenyl-methyl]-7-methoxy-imidazo[1,2-a]pyridine-6-carboxylic acid (1-ethyl-1H-[1,2,4]triazol-3-yl)-amide] | 100 to 10000 nM | 
10 | CCc1c(C(O)(c2ccccc2)c2ccc(C)s2)nc2cc(OC)c(C(=O)Nc3ncn(CC)n3)cn12 (single isomer, unassigned) [Compound 27, 3-Ethyl-2-[hydroxy-(5-methyl-thiophen-2-yl)-phenyl-methyl]-7-methoxy-imidazo[1,2-a]pyridine-6-carboxylic acid (1-ethyl-1H-[1,2,4]triazol-3-yl)-amide] | 1 to 10 nM | 
11 | CCn1cnc(NC(=O)c2cc3c(nc2OC)nc(C(O)(c2ccsc2)c2ccsc2)n3CC)n1 [Compound 38, 1-ethyl-N-(1-ethyl-1H-1,2,4-triazol-3-yl)-2-[hydroxybis(thiophen-3-yl)methyl]-5-methoxy-1H-imidazo[4,5-b]pyridine-6-carboxamide] | 1 to 10 nM | 

The next lines start with the values.

Row | IC50 (human rec ACSS2) | IC50 (ACSS2) | Structure (SMILES)
12 | 1 to 10 nM |  | CCn1cnc(NC(=O)c2cc3c(nc2OC)nc(C(O)(c2ccccc2)c2ccc4ccccc4n2)n3CC)n1 (racemic) [Compound 35, 1-ethyl-N-(1-ethyl-1H-1,2,4-triazol-3-yl)-2-[hydroxy(phenyl)(quinolin-2-yl)methyl]-5-methoxy-1H-imidazo[4,5-b]pyridine-6-carboxamide]
13 | 1 to 10 nM |  | CCn1cnc(NC(=O)c2cc3c(nc2OC)nc(C(O)(c2ccccc2)c2ccsc2)n3CC)n1 (racemic) [Compound 39, 1-ethyl-N-(1-ethyl-1H-1,2,4-triazol-3-yl)-2-[hydroxy(phenyl)(thiophen-3-yl)methyl]-5-methoxy-1H-imidazo[4,5-b]pyridine-6-carboxamide]
14 | 1 to 10 nM | 1 to 10 nM | CCn1cnc(NC(=O)c2cc3c(nc2OC)nc(C(O)(c2ccccc2)c2nccs2)n3CC)n1 (racemic) [Compound 44, 1-ethyl-N-(1-ethyl-1H-1,2,4-triazol-3-yl)-2-[hydroxy(phenyl)(1,3-thiazol-2-yl)methyl]-5-methoxy-1H-imidazo[4,5-b]pyridine-6-carboxamide]
15 | 1 to 10 nM | 1 to 10 nM | CCn1cnc(NC(=O)c2cc3c(nc2OC)nc(C(O)(c2ccccc2)c2cccnn2)n3CC)n1 (racemic) [Compound 45, 1-ethyl-N-(1-ethyl-1H-1,2,4-triazol-3-yl)-2-[hydroxy(phenyl)(pyridazin-3-yl)methyl]-5-methoxy-1H-imidazo[4,5-b]pyridine-6-carboxamide]
16 | 1 to 10 nM |  | CCn1cnc(NC(=O)c2cc3c(nc2OC)nc(C(O)(c2ccccc2)c2ccccc2C)n3CC)n1 (racemic) [Compound 56, 1-ethyl-N-(1-ethyl-1H-1,2,4-triazol-3-yl)-2-[hydroxy(2-methylphenyl)phenylmethyl]-5-methoxy-1H-imidazo[4,5-b]pyridine-6-carboxamide]
17 | 1 to 10 nM | 0.01 to 1 nM | CCn1cnc(NC(=O)c2cc3c(nc2OC)nc(C(O)(c2ccccc2)c2ccc(OC(F)F)cc2F)n3CC)n1 (racemic) [Compound 78, 2-{[4-(difluoromethoxy)-2-fluorophenyl](hydroxy)phenylmethyl}-1-ethyl-N-(1-ethyl-1H-1,2,4-triazol-3-yl)-5-methoxy-1H-imidazo[4,5-b]pyridine-6-carboxamide]
18 | 0.01 to 1 nM |  | CCn1cnc(NC(=O)c2cc3c(nc2OC)nc(C(O)(c2ccccc2)c2ccccc2)n3C)n1 [Compound 36, N-(1-ethyl-1H-1,2,4-triazol-3-yl)-2-(hydroxydiphenylmethyl)-5-methoxy-1-methyl-1H-imidazo[4,5-b]pyridine-6-carboxamide]
19 | 0.01 to 1 nM |  | [2H]c1c([2H])c([2H])c(C(O)(c2c([2H])c([2H])c([2H])c([2H])c2[2H])c2nc3nc(OC)c(C(=O)Nc4ncn(CC)n4)cc3n2CC)c([2H])c1[2H] [Compound 37, 1-ethyl-N-(1-ethyl-1H-1,2,4-triazol-3-yl)-2-{hydroxybis[(2,3,4,5,6-^2H5)phenyl]methyl}-5-methoxy-1 H-imidazo[4,5-b]pyridine-6-carboxamide]
